Legend:
[1] = system: c-Jun phosphorylation at serine 63; test: ELISA of c-Jun phosphorylation in PBMC of treated rats; assay type: in vivo, rat; conditions: 10 and 30 mg/kg; kainic acid treated rats
Protocol: Blood from the animals treated with kainic acid as per Example 1 above was processed for the characterization of peripheral blood mononuclear cells (PBMC) from the treated animals. Briefly, the final blood samples from the exsanguinated rats were immediately centrifuged at 3,000 g for 10 minutes at 4° C. The plasma in upper layer was removed, and the remaining portion used for the isolation of the PBMC.
The buffy coat of PBMCs at the erythrocyte-plasma interface and the top red cell layer were collected into a 15 mL falcon tube containing 3 ml chilled PBS. The sample was resuspended and transferred to other 15 mL falcon tubes containing 6 ml Ficoll-Paque plus density gradient, and centrifuged at 18° C. for 10 minutes at 800 g. […] The middle ‘cloudy’ interface layer between plasma and Ficoll containing the PBMCs was transferred to a 15 mL tube, washed with 10 mL of cold PBS (4° C., 1×PBS), and centrifuged for 5 min at 4° C. at 1000 g. The supernatant was discarded.
The isolated PBMC were subjected to an ELISA assay using a kit for the detection of c-Jun phosphorylation at serine 63. Detection of phospho-Jun was carried out for the PMBCs of each kainic acid administered rat group: those receiving IGP001 in vehicle, those receiving IGP002 in vehicle, or those receiving vehicle alone.

[2] = system: monocyte/macrophage recruitment; test: Monocyte/macrophage recruitment in vivo (Example 9); conditions: 10 mg/kg/day p.o.; model not specified
JNK1 = JNK1 (Homo sapiens, UniProt P45983); test: In vitro JNK1 inhibition (Table 1); assay type: biochemical
JNK1, sequence (P45983 whole entry, species assumed): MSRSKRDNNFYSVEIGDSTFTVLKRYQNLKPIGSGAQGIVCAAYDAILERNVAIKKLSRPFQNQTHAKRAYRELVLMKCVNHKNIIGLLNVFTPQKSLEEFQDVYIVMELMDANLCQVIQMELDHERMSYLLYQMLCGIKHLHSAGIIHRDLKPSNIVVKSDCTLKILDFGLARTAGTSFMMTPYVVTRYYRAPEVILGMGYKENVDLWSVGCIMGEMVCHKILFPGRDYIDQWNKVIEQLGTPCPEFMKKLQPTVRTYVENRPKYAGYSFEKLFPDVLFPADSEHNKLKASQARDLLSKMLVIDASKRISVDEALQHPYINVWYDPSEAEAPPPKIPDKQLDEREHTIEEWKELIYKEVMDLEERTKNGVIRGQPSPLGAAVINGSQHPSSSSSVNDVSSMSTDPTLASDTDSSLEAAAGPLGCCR
Protocol: In vitro assays for the determination of JNK activities are known in the art and exemplary assay formats are described herein.
IC50 values in Table 1 were determined using the procedures as described in U.S. Pat. No. 8,450,353.

[3] = system: myocardial ischemia-reperfusion; test: Rat model of cardiac ischemia and remodeling; assay type: in vivo
Protocol: To study the effects of JNK inhibitors on prevention and/or progression of cardiac infarct size following myocardial infarction, a rat model of cardiac ischemia and remodeling was used. Briefly, adult male Sprague-Dawley rats (Charles River labs) are subjected to 45 minutes normothermic ischemia (left coronary artery occlusion) followed by 48 hours reperfusion. In rodents, myocardial infarct size stabilizes by 48 hour post-ischemia following which events relating to left ventricular (LV) dilatation and remodeling begin. At the onset of reperfusion, animals receive vehicle, IGP001 or IGP002 (10 mg/kg/day) p.o. Infarct size as a percentage of region-at-risk (RAR) is determined using standard Evans Blue and tetrazolium chloride staining of the hearts. Rats are next tested for ischemic ventricular remodeling and cardiac function following treatment with IGP001 and IGP002. Rats subjected to 45 minutes normothermic myocardial ischemia receive vehicle, IGP001 or IGP002 p.o. (10 mg/kg/day, p.o.; twice/day for remainder of study) at onset of reperfusion. Following a 48 hour treatment period, animals are subjected to echocardiography (Philips Envisor C Ultrasound) at week 1 reperfusion and sacrificed at week 8 reperfusion. Myocardial ischemia-reperfusion is associated with the hall mark indices of LV remodeling: increased end-diastolic volume or LV dilatation; increased end-systolic volume (i.e. reduced cardiac output); reduced fractional shortening and ejection fraction. […] To better mimic the clinical scenario of delayed start of treatment, rats are administered with vehicle, IGP001 or IGP002 (10 mg/kg/day) p.o. 3 hours after the onset of reperfusion following a 45 minute myocardial ischemia. Animals are sacrificed at 48 hours reperfusion.

[4] = system: bleomycin-induced lung fibrosis; test: Mouse bleomycin-induced lung fibrosis model, therapeutic study; assay type: in vivo; conditions: 30 mg/kg b.i.d. oral gavage starting 7 days after bleomycin; male and female mice; 14 days
Protocol: Age and gender-matched wild type mice on the C57BL/6 background were utilized for this study, as outlined in Table 3: Mice were housed in a sterile barrier facility and given a single inhaled dose of 1.25 Units/kg pharmacologic grade bleomycin (Teva Pharmaceuticals, Israel) in a volume of 50 μl. Mice received twice daily administered IGP001, via oral gavage, on a b.i.d. schedule starting 7 days after bleomycin treatment in this therapeutic study. Mice were sacrificed at 14 days following the administration of bleomycin and assessed as appropriate for deposited collagen in the lungs using Masson's Trichrome stain.

JNK = test: TGF-β1-induced JNK activation in human lung fibroblasts (Western blot); assay type: cell-based; conditions: HFL-1 cells; compound 30 minutes, then TGF-β1 1 ng/ml 30 minutes
Protocol: (§1) IGP001 and IGP002 are shown to affect TGF-β1-induced MAP kinase activities in human lung fibroblasts. Human fetal lung fibroblasts (HFL-1) (ATCC, Rockville, Md.) are cultured in Ham's F12K medium (American Type Culture Collection) supplemented with 50 U/ml penicillin G sodium, 50 μg/ml streptonycin sulfate (GIBCO BRL, Life Technologies, Inc., Rockville, Md.) and 10% fetal bovine serum (FBS; Equitech-Bio. Inc., Ingram, Tex.) and maintained in humidified 5% CO2 at 37° C. After reaching confluence, the serum content of the medium is reduced to 0.4% FBS for 24 h. The cells are then stimulated with 1 ng/ml TGF-β1 to produce CTGF.
To test the ability of IGP001 and IGP002 to suppress activation of JNK, HFL-1 cells are cultured with 0.1% DMSO (control vehicle), IGP001 or IGP002 at a concentration of […] for 30 minutes, followed by stimulation with TGF-β1 (1 ng/ml) for 30 minutes. Activities of JNK, p38 MAP kinase and ERK are determined by Western blotting whole cell lysates using antibodies specific for phosphorylated, activated forms of JNK, p38 MAP kinase, and ERK. […]
Phosphorylated JNK protein levels are quantified by densitometry. The optical density of the p46 and p54 phosphorylated protein band are corrected for total p46 and p54 protein, respectively, and results are expressed as ratio (%) of control value (TGF-β1-stimulated HFL-1 cells).

ERK = test: TGF-β1-induced ERK activation in human lung fibroblasts (Western blot); assay type: cell-based; conditions: HFL-1 cells; TGF-β1 1 ng/ml
Protocol: as §1
To test the ability of IGP001 and IGP002 to suppress activation of JNK, HFL-1 cells are cultured with 0.1% DMSO (control vehicle), IGP001 or IGP002 at a concentration of […] for 30 minutes, followed by stimulation with TGF-β1 (1 ng/ml) for 30 minutes. Activities of JNK, p38 MAP kinase and ERK are determined by Western blotting whole cell lysates using antibodies specific for phosphorylated, activated forms of JNK, p38 MAP kinase, and ERK. Two identical experiments independently performed yielded similar results.

CTGF mRNA = test: TGF-β1-induced CTGF mRNA expression in HFL-1 cells; assay type: cell-based, human; conditions: compound 30 min before TGF-β1 1 ng/ml for 4 hours
Protocol: HFL-1 cells are created as described above in Example 3. HFL-1 cells are cultured with 0.1% DMSO (control vehicle), IGP001 or IGP002 for 30 min before stimulation with TGF-β1 (1 ng/ml) for 4 hours. Total RNA is extracted and hybridized with human CTGF probes, and messenger RNA levels are quantified by densitometry and optical density of CTGF mRNA band was corrected for G3PDH, and results are expressed as ratio (%) of control value (TGF-β1-stimulated HFL-1 cells).

[5] = 10 mg/kg/day p.o. for 48 hours following myocardial ischemia, week 1

IC50 (JNK1): < 100 nM
Structure (SMILES): O=C(Cn1c(=O)ccc2cc(C(F)(F)F)ccc21)Nc1scc(Br)c1-c1nnc[nH]1 [IGP001, N-(4-bromo-3-(1H-1,2,4-triazol-5-yl)thiophen-2-yl)-2-(2-oxo-6-(trifluoromethyl)quinolin-1(2H)-yl)acetamide]
c-Jun phosphorylation in PBMC [1]: decrease in c-Jun phosphorylation
monocyte/macrophage recruitment in vivo [2]: significantly reduce monocyte/macrophage recruitment
size of infarction, delayed start of treatment ([3]; 10 mg/kg/day p.o. 3 hours after the onset of reperfusion, 48 hours reperfusion): statistically significant decrease in the size of infarction
postischemic myocardial infarct size ([3]; 10 mg/kg/day p.o. at the onset of reperfusion, 48 hours reperfusion): significant reduction in postischemic myocardial infarct size
LV remodeling (echocardiography) [3, 5]: reduces adverse LV remodeling
cardiac function (echocardiography) [3, 5]: improved cardiac function
deposited collagen in the lungs (Masson's Trichrome stain) [4]: significantly reduced deposited collagen
TGF-β1-induced JNK phosphorylation (JNK): suppress TGF-β1-induced JNK phosphorylation in a dose-dependent fashion
TGF-β1-induced ERK activation (ERK): but not p38 MAP Kinase or ERK Activation
CTGF mRNA expression (CTGF mRNA): suppressed CTGF mRNA expression by HFL-1 cells stimulated with TGF-β1 in a dose-dependent fashion

Source: patent publication US20190231751A1, “TREATMENT OF FIBROTIC DISORDERS WITH JUN N-TERMINAL KINASE INHIBITORS” (Imago Pharmaceuticals, Inc., priority 2016, published 2019)
